This series has as its system CCRIS mutagenicity, Ames/micronucleus/aberration tests. Nature of the series: CCRIS mutagenicity studies.
[1] abbreviates: Test System: AMES SALMONELLA TYPHIMURIUM, Strain/Indicator: TA98, Metabolic Activation: NONE, Method: STANDARD PLATE.
Where [2] appears, read: Test System: AMES SALMONELLA TYPHIMURIUM, Strain/Indicator: TA98, Metabolic Activation: RAT, LIVER, S-9, AROCLOR 1254, Method: STANDARD PLATE.
The mark [3] stands for this setting: Test System: AMES SALMONELLA TYPHIMURIUM, Strain/Indicator: TA100, Metabolic Activation: NONE, Method: STANDARD PLATE.
The mark [4] stands for this setting: Test System: AMES SALMONELLA TYPHIMURIUM, Strain/Indicator: TA100, Metabolic Activation: RAT, LIVER, S-9, AROCLOR 1254, Method: STANDARD PLATE.
Where [5] appears, read: Test System: AMES SALMONELLA TYPHIMURIUM, Strain/Indicator: TA1535, Metabolic Activation: NONE, Method: STANDARD PLATE.
Setting [6] is: Test System: AMES SALMONELLA TYPHIMURIUM, Strain/Indicator: TA1535, Metabolic Activation: RAT, LIVER, S-9, AROCLOR 1254, Method: STANDARD PLATE.
The mark [7] stands for this setting: Test System: AMES SALMONELLA TYPHIMURIUM, Strain/Indicator: TA1537, Metabolic Activation: NONE, Method: STANDARD PLATE.
Setting [8] is: Test System: AMES SALMONELLA TYPHIMURIUM, Strain/Indicator: TA1537, Metabolic Activation: RAT, LIVER, S-9, AROCLOR 1254, Method: STANDARD PLATE.

Each structure is given as a SMILES string. The source made the active and inactive calls. How the calls were made is not given here.

Turning to `c1ccc(-c2cccc(-c3ccccn3)n2)nc1`, the mutagenic call runs as follows: (Test System: AMES SALMONELLA TYPHIMURIUM, Strain/Indicator: TA97, Metabolic Activation: RAT, LIVER, S-9, PHENOBARBITAL, Method: STANDARD PLATE) “active; positive”; (Test System: AMES SALMONELLA TYPHIMURIUM, Strain/Indicator: TA98, Metabolic Activation: RAT, LIVER, S-9, PHENOBARBITAL, Method: STANDARD PLATE) “inactive; negative”; (Test System: AMES SALMONELLA TYPHIMURIUM, Strain/Indicator: TA100, Metabolic Activation: RAT, LIVER, S-9, PHENOBARBITAL, Method: STANDARD PLATE) “active; positive”; (Test System: AMES SALMONELLA TYPHIMURIUM, Strain/Indicator: TA1535, Metabolic Activation: RAT, LIVER, S-9, PHENOBARBITAL, Method: STANDARD PLATE) “inactive; negative”; (Test System: AMES SALMONELLA TYPHIMURIUM, Strain/Indicator: TA1537, Metabolic Activation: RAT, LIVER, S-9, PHENOBARBITAL, Method: STANDARD PLATE) “inactive; negative”; (Test System: AMES SALMONELLA TYPHIMURIUM, Strain/Indicator: TA1538, Metabolic Activation: RAT, LIVER, S-9, PHENOBARBITAL, Method: STANDARD PLATE) “inactive; negative”.
Turning to `NC(=O)c1cccc2cccnc12`, the mutagenic call under setting [1] was “inactive; negative”; the mutagenic call under setting [2] is “inactive; negative”; the mutagenic call under setting [3] is “inactive; negative”; the mutagenic call under setting [4] is “active; positive”; the mutagenic call under setting [5] is “inactive; negative”; the mutagenic call under setting [6] was “inactive; negative”. Further, the mutagenic call runs as follows: under setting [7], “inactive; negative”; under setting [8], “inactive; negative”.
Regarding `Cc1c([N+](=O)[O-])cnc2c1nc1c(C)cccn12`, the mutagenic call was “active; positive” under setting [1]; “active; positive” (Test System: AMES SALMONELLA TYPHIMURIUM, Strain/Indicator: TA98, Metabolic Activation: RAT, LIVER, CYTOSOL, AROCLOR 1254, Method: STANDARD PLATE); “active; positive” (Test System: AMES SALMONELLA TYPHIMURIUM, Strain/Indicator: TA98, Metabolic Activation: RAT, LIVER, MICROSOMES, AROCLOR 1254, Method: STANDARD PLATE); “active; positive” under setting [2].
As to `Oc1ccc2c(c1)OCO2`, the mutagenic call runs as follows: (Test System: AMES SALMONELLA TYPHIMURIUM, Strain/Indicator: TA98, Metabolic Activation: HAMSTER, LIVER, S-9, AROCLOR 1254, Method: STANDARD PLATE) “inactive; negative”; under setting [1], “inactive; negative”; under setting [2], “inactive; negative”; (Test System: AMES SALMONELLA TYPHIMURIUM, Strain/Indicator: TA100, Metabolic Activation: HAMSTER, LIVER, S-9, AROCLOR 1254, Method: STANDARD PLATE) “inactive; negative”; under setting [3], “inactive; negative”; under setting [4], “inactive; negative”. Moreover, the mutagenic call reads like this: (Test System: AMES SALMONELLA TYPHIMURIUM, Strain/Indicator: TA1535, Metabolic Activation: HAMSTER, LIVER, S-9, AROCLOR 1254, Method: STANDARD PLATE) “inactive; negative”; under setting [5], “inactive; negative”; under setting [6], “inactive; negative”; (Test System: AMES SALMONELLA TYPHIMURIUM, Strain/Indicator: TA1537, Metabolic Activation: HAMSTER, LIVER, S-9, AROCLOR 1254, Method: STANDARD PLATE) “inactive; negative”; under setting [7], “inactive; negative”; under setting [8], “inactive; negative”. In addition, the mutagenic call (Test System: AMES SALMONELLA TYPHIMURIUM, Strain/Indicator: TA1538, Metabolic Activation: HAMSTER, LIVER, S-9, AROCLOR 1254, Method: STANDARD PLATE) was “inactive; negative”; the mutagenic call (Test System: AMES SALMONELLA TYPHIMURIUM, Strain/Indicator: TA1538, Metabolic Activation: NONE, Method: STANDARD PLATE) was “inactive; negative”; the mutagenic call (Test System: AMES SALMONELLA TYPHIMURIUM, Strain/Indicator: TA1538, Metabolic Activation: RAT, LIVER, S-9, AROCLOR 1254, Method: STANDARD PLATE) was “inactive; negative”; the mutagenic call (Test System: MOUSE LYMPHOMA, Strain/Indicator: L5178Y (TK+/TK-), Metabolic Activation: NONE, Method: SUSPENSION/PLATE) was “active; positive”; the mutagenic call (Test System: MOUSE LYMPHOMA, Strain/Indicator: L5178Y (TK+/TK-), Metabolic Activation: RAT, LIVER, S-9, AROCLOR 1254, Method: SUSPENSION/PLATE) was “active; positive”; the mutagenic call (Test System: Mouse lymphoma, Strain/Indicator: L5178Y (tk+/tk-), Metabolic Activation: None, Method: Suspension/plate) was “active; positive”. The mutagenic call (Test System: Mouse lymphoma, Strain/Indicator: L5178Y (tk+/tk-), Metabolic Activation: Rat, Liver, S-9, Aroclor 1254, Method: Suspension/plate) was “active; positive”.
Regarding `C=CC(=O)OCC(C)C`, the mutagenic call runs as follows: (Test System: AMES SALMONELLA TYPHIMURIUM, Strain/Indicator: TA98, Metabolic Activation: HAMSTER, LIVER, S-9, AROCLOR 1254 (10%), Method: PREINCUBATION) “inactive; negative”; (Test System: AMES SALMONELLA TYPHIMURIUM, Strain/Indicator: TA98, Metabolic Activation: NONE, Method: PREINCUBATION) “inactive; negative”; (Test System: AMES SALMONELLA TYPHIMURIUM, Strain/Indicator: TA98, Metabolic Activation: RAT, LIVER, S-9, AROCLOR 1254 (10%), Method: PREINCUBATION) “inactive; negative”; (Test System: AMES SALMONELLA TYPHIMURIUM, Strain/Indicator: TA100, Metabolic Activation: HAMSTER, LIVER, S-9, AROCLOR 1254 (10%), Method: PREINCUBATION) “inactive; negative”; (Test System: AMES SALMONELLA TYPHIMURIUM, Strain/Indicator: TA100, Metabolic Activation: NONE, Method: PREINCUBATION) “inactive; negative”; (Test System: AMES SALMONELLA TYPHIMURIUM, Strain/Indicator: TA100, Metabolic Activation: RAT, LIVER, S-9, AROCLOR 1254 (10%), Method: PREINCUBATION) “inactive; negative”. Also, the mutagenic call (Test System: AMES SALMONELLA TYPHIMURIUM, Strain/Indicator: TA1535, Metabolic Activation: HAMSTER, LIVER, S-9, AROCLOR 1254 (10%), Method: PREINCUBATION) is “inactive; negative”; the mutagenic call (Test System: AMES SALMONELLA TYPHIMURIUM, Strain/Indicator: TA1535, Metabolic Activation: NONE, Method: PREINCUBATION) is “inactive; negative”; the mutagenic call (Test System: AMES SALMONELLA TYPHIMURIUM, Strain/Indicator: TA1535, Metabolic Activation: RAT, LIVER, S-9, AROCLOR 1254 (10%), Method: PREINCUBATION) was “inactive; negative”; the mutagenic call (Test System: AMES SALMONELLA TYPHIMURIUM, Strain/Indicator: TA1537, Metabolic Activation: HAMSTER, LIVER, S-9, AROCLOR 1254 (10%), Method: PREINCUBATION) is “inactive; negative”; the mutagenic call (Test System: AMES SALMONELLA TYPHIMURIUM, Strain/Indicator: TA1537, Metabolic Activation: NONE, Method: PREINCUBATION) is “inactive; negative”; the mutagenic call (Test System: AMES SALMONELLA TYPHIMURIUM, Strain/Indicator: TA1537, Metabolic Activation: RAT, LIVER, S-9, AROCLOR 1254 (10%), Method: PREINCUBATION) is “inactive; negative”.
As to `CC(=O)N[C@@H](C(=O)N(CC(=O)O)N=O)C(C)C`, the mutagenic call under setting [3] was “active; positive”; the mutagenic call under setting [4] was “active; positive”; the mutagenic call (Test System: CHO/HGPRT, Strain/Indicator: CHO-K1-BH4, Metabolic Activation: NONE) was “active; positive”.
As to `Cc1nc2ccc3c(nc(N)n3C)c2nc1C`, the mutagenic call under setting [2] was “active; positive”.
Consider `Cc1occc(=O)c1[O-].Cc1occc(=O)c1[O-].Cc1occc(=O)c1[O-].[Cr+3]`, for which the mutagenic call (Test System: AMES SALMONELLA TYPHIMURIUM, Strain/Indicator: TA92, Metabolic Activation: NONE, Method: STANDARD PLATE) was “inactive; negative”; the mutagenic call under setting [1] is “inactive; negative”; the mutagenic call under setting [3] is “inactive; negative”; the mutagenic call (Test System: AMES SALMONELLA TYPHIMURIUM, Strain/Indicator: TA104, Metabolic Activation: NONE, Method: STANDARD PLATE) was “inactive; negative”.

The record behind these values is PubChem BioAssay AID1259407 (Chemical Carcinogenesis Research Information System (CCRIS), 2018).
